The text below walks through data of US20070015723A1, “Antiviral oligonucleotides having a conserved G4 core sequence” (priority 1992, published 2007).

Values joined by “and” are separate entries in the source; they are usually repeats but may differ in a detail not shown here. Equal entries are not always repeated. Where two headings read alike, the source gives them in different places. Strand notation (5' to 3'): a small letter for the sugar, then the base; units joined by * are phosphorothioate-linked, units joined directly phosphodiester-linked; [ ] holds rarer units or linkages, { } end groups; capitals alone tell only the bases. d = 2'-deoxy (DNA) Bounds are passed on as bounds.

Usually EC50 stands for the concentration needed to bring the measured effect to its halfway point. Broadly, the IC50 is the concentration that gives 50% inhibition.

One data set deals with HIV. The class given is cell-based.
In data set [1] the test system is influenza strain A/NWS/33 (H1N1). The class given is cell-based, influenza virus.
The test system of data set [2] is respiratory syncytial virus (RSV) strain Long. The class given is cell-based.
For another data set, the system named is HSV-2 strain E194. The class given is cell-based.
The subject of data set [3] is HSV-1 (KOS). The data set can be described thus: HSV-1 infection ELISA assay. The class given is cell-based. For orientation: In an ELISA, binding on a coated surface is turned into a signal by an enzyme label.
Data set [4] has as its system Adenovirus, Type 5 (A-5), strain Adenoid 75. It is filed as cell-based.
The next data set concerns HIV-1IIIB. The data set can be described thus: Acute HIV infection assay (XTT, CEM cells). The note with it: for IC50: inhibition of HIV.
Data set [5] concerns rhinovirus 2 (R-2), strain HGP. The class given is cell-based, human rhinovirus.
A further data set deals with varicella zoster virus. It is filed as cell-based.
The subject of data set [6] is HSV-1 (KOS). The data set can be described thus: HSV-1 virus yield assay. The conditions noted are these: FIG. 2. The class given is cell-based.
A further data set relates to vaccinia virus. It is filed as cell-based.
The next data set addresses CD4/gp120 interaction (Human immunodeficiency virus type 1 group M subtype B, UniProt P03375). The conditions noted are these: ELISA; Callahan et al.; cited from earlier work.
Another data set relates to HSV1-DM2.1. The data set can be described thus: microbe, parasite or virus in culture. The class given is cell-based, HSV-1.
The next data set has as its system HSV1-F. The data set can be described thus: HSV ELISA assay, strain HSV1-F. The class given is cell-based, HSV-1.
The next data set concerns HSV1-McKrae. The data set can be described thus: HSV ELISA assay, strain HSV1-McKrae. The class given is cell-based, HSV-1.
In another data set the test system is HSV1-PAAr. The data set can be described thus: microbe, parasite or virus in culture. It is filed as cell-based, HSV-1.
For another data set, the system named is HSV-2. The data set can be described thus: HSV ELISA assay, HSV-2. It is filed as cell-based.
Data set [7] has as its system HSV-1 (KOS). The data set can be described thus: Effect of time of oligonucleotide addition on HSV-1 inhibition (NHDF cells, ELISA). The arrangement: dose or concentration left out as unconfirmed. The conditions noted are these: added at the time of virus infection (t=0). It is filed as cell-based.
The subject of data set [8] is Crotalus durissus terrificus phospholipase A2.
The target of data set [9] is T1, human type II phospholipase A2 (Homo sapiens, UniProt P14555).
T1 sequence (P14555 21-144): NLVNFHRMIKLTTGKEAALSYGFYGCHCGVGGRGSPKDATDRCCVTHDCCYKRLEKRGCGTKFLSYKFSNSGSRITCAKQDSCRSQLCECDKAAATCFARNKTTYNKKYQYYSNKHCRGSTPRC
The data set can be described thus: Human type II phospholipase A2 enzyme assay (3H-oleic acid labelled E. coli substrate). The class given is biochemical.

Data set [10] addresses Apis mellifera phospholipase A2 (Apis mellifera, UniProt P00630).
Data set [11] concerns the target Bovine pancreatic phospholipase A2 (Bos taurus, UniProt P00593).
For data set [12], the system named is Phospholipase A2 isolated from the venom of Trimeresurus flavoridis. The data set can be described thus: Phospholipase A2 enzyme assay, Trimeresurus flavoridis venom enzyme. The class given is biochemical.
Another data set deals with CEM cell line. The data set can be described thus: Cytotoxicity (TC50) alongside acute HIV infection assay.
Where [13] appears, read: 50% inhibition of HSV replication relative to control infected cells, Table 1.

Chain of Bovine pancreatic phospholipase A2 (P00593 23-145): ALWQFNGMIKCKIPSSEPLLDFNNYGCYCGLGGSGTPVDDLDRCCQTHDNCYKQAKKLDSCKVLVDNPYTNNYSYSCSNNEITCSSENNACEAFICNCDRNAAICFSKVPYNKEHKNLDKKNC

On to “ISIS 5652: TT GGGG TT GGGG TT GGGG TT, P = S, SEQ ID NO 37 (TTGGGGTTGGGGTTGGGGTT; all phosphorothioate, sugars by position not given here)”, for which the ED50 in the data set on HIV was 0.18 µM; in data set [1] it was 0.6 µM; in data set [2], 1.9 µM; in the data set on HSV-2 strain E194, 0.3 µM; in data set [4], more than 100 µM; in data set [5] it was more than 100 µM. Also, the ED50 with varicella zoster virus turned out to be 18 µM. The TI was 227 in the data set on HIV; 93 in data set [1]; more than 53 in [2]; more than 333 in the data set with HSV-2 strain E194; less than 1.0 in data set [4]. The compound further gave an EC50 in the data set on HSV-1 (KOS) [3] (setting [13]) of 0.16 µM. Further, the “TI (TC50/IC50)” value in the data set with HIV-1IIIB was determined as 227. In the data set with HIV-1IIIB, the IC50 is 0.1 µM and 0.18 µM. The “anti-HSV activity in virus yield assay” value in the data set on HSV-1 (KOS) [6] is “dose-dependent anti-HSV activity”.
The compound `Nc1ncnc2c1ncn2[C@@H]1O[C@H](CO)[C@@H](O)[C@@H]1O` [Ara-A, 9-(β-D-arabinofuranosyl)adenine] displayed an ED50 in the data set on vaccinia virus (Vacc) of 15.8 µM.
Turning to Dextran sulfate, the “effect on the gp120/CD4 interaction” value at CD4/gp120 interaction is “does not prevent the gp120/CD4 interaction”.
Consider “ISIS 1082: GCCGAGGTCCATGTCGTACGC, SEQ ID NO 134; negative control, complementary to HSV UL13 translation initiation codon, no runs of G (dG*dC*dC*dG*dA*dG*dG*dT*dC*dC*dA*dT*dG*dT*dC*dG*dT*dA*dC*dG*dC)”, for which the EC50 in the data set with HSV1-DM2.1 (HSV1-DM2.1 (resistant to ACV), read-out: EC50) is more than 3 µM; in the data set on HSV-1 (KOS) [3] (HSV-1 (KOS strain), Table 9, some in duplicate), 2.5 µM and 1.8 µM; in the data set on HSV-1 (KOS) [3] (HSV-1 (KOS), Table 10) it was 2.1 µM; in the data set on HSV1-F it was more than 3 µM; with HSV1-McKrae it was more than 3 µM; in the data set with HSV1-PAAr (HSV1-PAAr (resistant to ACV), read-out: EC50) it was more than 3 µM. Moreover, the EC50 in the data set with HSV-2 is 2 µM.
Turning to “ISIS 3383: scrambled version of ISIS 1082, SEQ ID NO: 122; negative control oligonucleotide (TGGGCACGTGCCTGACACGGC; chemistry not given here)”, the ED50 in data set [1] was 19 µM; in data set [2] it was 0.7 µM; in the data set with vaccinia virus, more than 100 µM; with HSV-2 strain E194 it was 2.8 µM; in [4], more than 100 µM; in data set [5], more than 100 µM. Also, the TI in data set [1] is listed as more than 5; in data set [2], 60; in the data set with HSV-2 strain E194 it was more than 36. For the same compound, the “inhibition of HSV replication” value in the data set with HSV-1 (KOS) [7] is given as “inhibited HSV replication”.
In the case of “ISIS 3196: GGG T GGG T ATA G AAG G GCT CC, P = S, SEQ ID NO 47 (GGGTGGGTATAGAAGGGCTCC; all phosphorothioate, sugars by position and methylation of C not given here)”, the IC50 in [8] is approximately 0.3 µM; in data set [9] (FIG. 5), approximately 0.15 µM; in [10], more than 100 µM; in data set [11] it was approximately 100 µM; in [12] it was more than 10 µM. Besides, the “inhibition of human type II phospholipase A2” value in data set [9] (1 μM) is recorded as “completely inhibited”. Moreover, the “% Inhibition (1 μM)” value in [9] (1 μM, Table 4) was 98.5%; in data set [9] (1 μM, Table 5, two separate experiments), 100% and 76.2%. Moreover, in data set [9] (increasing E. coli substrate, ISIS 3481 at 0.2 μM and 2 μM), the “effect on substrate kinetics” value is on record as “apparent noncompetitive inhibitor”. Further, the entries for the “inhibitory activity (% inhibition)” value in data set [9] (not boiled) and in data set [9] (placed in boiling water for 15 minutes prior to assay) were 94% and 21%, respectively. The compound further yielded an EC50 in the data set with HSV-1 (KOS) [3] (setting [13]) of 0.2 µM.
As for `NC(=O)c1ncn([C@@H]2O[C@H](CO)[C@@H](O)[C@H]2O)n1` [Ribavirin], the ED50 in data set [1] came to 7.78 µM; in data set [2], 49 µM; in data set [4], 82 µM; in data set [5], 229 µM.
In the case of “ISIS 4721: CAC GGG GTC G, P = S, SEQ ID NO 32 (CACGGGGTCG; all phosphorothioate, sugars by position and methylation of C not given here)”, the TC50 with CEM cell line was found to be 142 µM. Also, the EC50 in the data set with HSV-1 (KOS) [3] (setting [13]) stood at 0.4 µM. Also, in the data set with HIV-1IIIB, the “TI (TC50/IC50)” value turned out to be 546; the concentration for half-maximal inhibition (IC50) is 0.21 µM and 0.26 µM.
Take `Nc1nc2c(ncn2COCCO)c(=O)[nH]1` [ACV, 9-(2-hydroxyethoxymethyl)guanine]: the ED50 with HSV-2 strain E194 came to 97.7 µM. In addition, the EC50 in the data set on HSV1-DM2.1 (Human alphaherpesvirus 1) is more than 3 µM; in the data set on HSV1-F (Human alphaherpesvirus 1) it was 0.7 µM; in the data set with HSV1-McKrae (Human alphaherpesvirus 1), 1.8 µM; in the data set with HSV1-PAAr (Human alphaherpesvirus 1) it was more than 3 µM; in the data set on HSV-2 (Human alphaherpesvirus 2) it was 2 µM.
